Data set [1] is described as follows: RRCK passive permeability. As to conditions: dog, MDCK.
The next data set relates to SARS-CoV-2. The data set can be described thus: microbe, parasite or virus in culture. The class given is cell-based.
The target in a further data set is SARS-CoV-2 PL^pro (Severe acute respiratory syndrome coronavirus 2, UniProt P0DTD1). The data set can be described thus: PLpro enzymatic assay (Z-RLRGG-AMC substrate cleavage). It is filed as biochemical. Particulars: geometric mean of at least three replicates.
Data set [2] can be described thus: Metabolic stability in cryopreserved human hepatocytes.
Data set [3] in a line: in vitro. As to conditions: human, hepatocytes.
Data set [4] can be described thus: in vitro. As to conditions: dog, MDCK.
Where [5] appears, read: Severe acute respiratory syndrome coronavirus 2, Vero C1008, read-out: SARS-CoV-2 Vero E6 EC50 (nM)*.

From publication PMC11364104, “Discovery of SARS-CoV-2 papain-like protease (PL^pro) inhibitors with efficacy in a murine infection model” (Science Advances, 2024) come the findings set out here.

Where two headings read alike, the source gives them in different places.

With `Cc1ccccc1C(=O)N[C@H](C)c1cc(-c2cnn(C)c2)nc2ccccc12` [Compound 2], the Papp – broadly, a coefficient for how fast a substance crosses the barrier – in data set [1] is 42 ×10⁻⁶ cm/s. Also, the EC50 – broadly, the concentration at which the effect is half-maximal – in the data set with SARS-CoV-2 (setting [5]) came to 1580 nM. For the same molecule, at SARS-CoV-2 PL^pro, the Ki (as a rule, the equilibrium dissociation constant of an inhibitor or competing ligand from its target) turned out to be 116 nM. Moreover, the hepatocyte CLint (in general, the capacity of the preparation to metabolise the compound, expressed as a volume cleared per time) in data set [2] was determined as 13.9 µL/min/1e6 cells.

With `Cc1ccc(N)cc1C(=O)N[C@H](C)c1cccc2ccccc12` [Compound 1], the EC50 in the data set with SARS-CoV-2 (Severe acute respiratory syndrome coronavirus 2, Vero C1008, read-out: EC50, cytopathic effect (CPE)) amounted to 68200 nM. Also, the hepatocyte CLint in the data set “in vitro [3]” amounted to 20.9 µL/min/1e6 cells. For the same molecule, in “in vitro [4]”, the Papp was found to be 45.6 ×10⁻⁶ cm/s.

The molecule `Cc1ccc(N2CCN(C)CC2)cc1C(=O)N[C@H](C)c1cc(-c2cnn(C)c2)nc2ccccc12` [Compound 3] had a Papp in data set [1] of 41.9 ×10⁻⁶ cm/s. Besides, the EC50 with SARS-CoV-2 (setting [5]) amounted to 652 nM. In data set [2], this molecule gave an intrinsic clearance (hepatocyte CLint) of 12.8 µL/min/1e6 cells.
